The values that follow come from paper PMC3446905, “Puerarin Suppresses Proliferation of Endometriotic Stromal Cells Partly via the MAPK Signaling Pathway Induced by 17ß-estradiol-BSA” (PLoS ONE, 2012).

The test has as its system T1, estrogen receptors (ERs; subtype not resolved).
T1 construct: endogenous receptors in whole endometriotic stromal cells (ESCs)
In words: whole-cell competitive radioligand binding against [3H]-E2. The test is classed as cell-based, Homo sapiens. The protocol: whole-cell competitive radioligand binding against [3H]-E2 on estrogen receptors (ERs; subtype not resolved) | puerarin also competed against the specific binding of [^3H]-E2 to ERs, and the IC50 of puerarin was determined

`O=c1c(-c2ccc(O)cc2)coc2c([C@@H]3O[C@H](CO)[C@@H](O)[C@H](O)[C@H]3O)c(O)ccc12` [puerarin] showed an IC50 of 870 nM.
